Measurements: the NIST ThermoML archive (doi:10.1021/je900756g)
± gives the expanded uncertainty stated by the source.

Details: Liquid; for mass density: Bellows volumetry; for vapor or sublimation pressure: Closed cell (Static) method

F/C=C/C(F)(F)F [trans-1,3,3,3-tetrafluoropropene]
mass density [kg/m3]
Details	310 K	320 K	330 K	340 K	350 K	360 K	370 K
2000 kPa	1130.2 ± 3.4	1093.3 ± 3.2	1054.2 ± 3.2	1008.1 ± 3	953.6 ± 2.8	–	–
3000 kPa	1136.3 ± 3.4	1100.9 ± 3.2	1063.6 ± 3.4	1021 ± 3	972.3 ± 3	910.5 ± 2.6	821.5 ± 2.4
4000 kPa	1142.1 ± 3.4	1108 ± 3.2	1072.2 ± 3.4	1032.2 ± 3.2	987.6 ± 3	934.2 ± 2.8	867.6 ± 2.6
5000 kPa	1147.7 ± 3.6	1114.7 ± 3.4	1080 ± 3.4	1042.4 ± 3.2	1000.5 ± 3.2	952.9 ± 2.8	896.7 ± 2.8

Details	vapor or sublimation pressure [kPa]
310 K	703 ± 2
320 K	920 ± 2
330 K	1183 ± 3
340 K	1500 ± 3
350 K	1876 ± 3
360 K	2320 ± 4
370 K	2841 ± 5
380 K	3458 ± 5
